In patent US20260287575A1, “LABEL-FREE METHODS FOR ASSESSING CELL STATE IN A BIOLOGICAL SAMPLE” (priority 2023, published 2026):

Columns and labels:
mouse liver slice = test: dOCM imaging of live and dead cells in a mouse liver slice after local staurosporine injection; assay type: cell-based; details: local injection of 200 nL, 2 μM in DMSO; 300 μm thick liver slice
Excerpt: A 300 μm thick slice of liver is shown. […] Live cells in the live region (lower part in the xy plane) are highlighted in the dOCM image volume. The live cells show high contrast compared to dead regions in the three orthogonal views (xy, yz, and xz planes). The positions of the yz and xz slices are indicated by the yellow lines in the xy plane. Scale bar: 100 μm.
Live cells were visible in the dOCM image volume. […] Good correlation is observed between the dOCM signal and the expected LMR signatures in this monolithic tissue (FIG. 3). […] In those areas, the dOCM is used to establish a ground truth for living tissue that can in turn be used to qualify the LMR and set specific discreet baseline LMR values for living tissue in these regions. This is as opposed to using a generic, specific value determined with an assumption that the tissue is monolithic.

[1] = system: primary human lung cancer tissue; test: Combined dOCM and FLIM imaging of tissue viability in a primary human lung cancer tissue slice; assay type: cell-based; details: 10 μM
Protocol: (§1) FIG. 16 presents multimodal imaging of tissue viability with primary human lung cancer tissue using combined dOCM and FLIM. (a) dOCM and LMR images of a human lung cancer tissue slice. (b) dOCM and LMR images of another lung tissue slice from the same sample. The metabolic state of this sample is different from the tissue slice in (a). (c) The tissue slice in (a) was treated with 10 μM staurosporine. The slice was imaged 24 hours after treatment. […] Scale bar: 100 μm.
as §1, with “bar” for “bar:”

[2] = system: CT26 live tumor fragments; test: FLIM lifetime metabolic ratio (LMR) with ground truth dyes (PI, caspase 3/7) in CT26 live tumor fragments; assay type: cell-based, murine; details: for shift in the LMR relative to time zero healthy tissue: normalized LMR; for mode of cell death induced: confirmed with Caspase 3/7 and PI probes
Protocol: Live tumor fragments (LTFs) from flank expressed murine syngeneic CT26 tumors were used to assess cell state using a combination of OCM/dOCM and FLIM as described herein.
CT26 tumors were excised, bisected, and cut into 300×300×300 μm LTFs. These fragments were sorted into 18-well plates for analysis by microscopy. Fragments were incubated at 37° C. in 5% CO2 in non-phenol red containing RPMI for up to four hours before being placed in the microscope. During imaging the sample was maintained in a stage-top incubator at 37° C., 5% CO2, and 95% humidity. Images were taken using a custom four channel multi-photon microscope built on a modified Zeiss Axiovert platform using adapted Bruker components, the PrairieView software package, and electronic components to drive and control the scanning microscope. FLIM data was acquired using an 8 channel Swabian instruments time tagger.
FLIM images were acquired at 50 micron and 75 micron depths into the tissue. Live tumor fragment structure and metabolic status were assessed based on the intrinsically fluorescent metabolic co-factors […] (NAD(P)H), excited at 740 nm, and flavin adenine dinucleotide (FAD), excited at 880 nm. […] LMR histogram data from the fragments was normalized by taking the mode of the resultant histogram data at baseline from healthy tissue and setting this value to 0 across the time course. Data derived from the NAD(P)H, and FAD signals were used to segment the image into individual Voronoi cells seeded from nuclear segmentation. The normalized LMR value was determined for each Voronoi cell.
To qualify observed shifts in the LMR, the ground truth nuclear localizing dyes for cleaved caspase 3/7 activity (Invitrogen) or necrosis (propidium iodide) were added. Voronoi cells that stained positive for propidium iodide were marked as dead and those that were not stained with PI were marked as live.
Cell death via apoptosis was induced using staurosporine. […] (FIG. 8). […] Probe data from Caspase 3/7 and P1 confirmed the shift for LMR values indicating live tissue vs. dead tissue. Cell death via necroptosis was induced using Shikonin. […] PI confirmed the necroptosis signature.
To validate the imaging routine in a model with clinical relevancy, CT26 mLTFs were treated with a combination of […] (3MA) and doxorubicin over a duration of 48 hours (FIG. 10). For this, mLTFs were imaged every 24 hours following treatment for longitudinal assessment of chemotherapeutic efficacy. Linear metabolic shift values obtained in separate CT26 control experiments were applied to Voronoi segmented images to classify individual cells as alive or dead. Data were plotted in a time course indicating the activity of the drug combination.

mouse liver = test: Multimodal dOCM and FLIM imaging of tissue viability in mouse liver after shikonin injection; assay type: cell-based; details: 100 nL, 6 μM, injected into the center of the tissue; PI staining
Protocol: 100 nL shikonin (6 μM) was injected into the center of the tissue to create necroptosis indicted by the white arrow. Scale bar: 100 μm. […] LMR values are indicated by the color bar.

CN[C@@H]1C[C@H]2O[C@@](C)([C@@H]1OC)n1c3ccccc3c3c4c(c5c6ccccc6n2c5c31)C(=O)NC4 [staurosporine]
tissue viability by dOCM (mouse liver slice): caused tissue death | cell state indicated by NADH and FAD phasor plots ([1]; 24 hours after treatment): undergoing apoptosis | metabolic state (LMR) compared to that prior to treatment ([1]; 24 hours after treatment): shifted | viable cells revealed by dOCM ([1]; imaged 24 hours after treatment): Less viable cells | shift in the LMR relative to time zero healthy tissue ([2]; CT26 LTFs): large, reproducible shift to the right | mode of cell death induced ([2]; CT26 LTFs): apoptosis

CC(C)=CC[C@@H](O)C1=CC(=O)c2c(O)ccc(O)c2C1=O [Shikonin]
shift in the LMR relative to time zero healthy tissue ([2]; CT26 LTFs): large, reproducible shift to the left | Caspase 3/7 staining ([2]; CT26 LTFs, stressed tissue): little to no Caspase 3/7 staining | mode of cell death induced ([2]; CT26 LTFs): necroptosis | mode of cell death created (mouse liver): necroptosis

Cn1cnc(N)c2ncnc1-2 [3-MA]
PI staining ([2]; CT26 live tumor fragment (FIG. 6)): dead cells | LMR values of PI-stained cells ([2]; CT26 live tumor fragment treated and stained with PI (FIG. 6)): relatively uniform low LMR values
